Reference: PubChem BioAssay AID1845198 (Molecular Pharmacology Branch, DTP, NCI, 2023)

System: 425362-245-T-J1 tumor spheroids, viability % test/control
Assay: Anticancer human tumor 425362-245-T-J1 patient-derived melanoma cell line growth inhibition
Conditions: spheroids with HUVEC and MSC; for IC50: curve of first compound; for viability, T/C: stronger effect = lower value
How it was run: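 Complex tumor spheroids combined malignant cells with endothelial cells and mesenchymal stem cells. DNA-damaging drugs and DNA repair inhibitors were tested alone and in combination, at half-log dilutions down from clinical Cmax (top 10 microM if Cmax unknown), 0.25% DMSO final.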

[1] = second compound 0.003 µM, first compound 0.0316 µM
[2] = second compound 0.003 µM, first compound 0.1 µM
[3] = second compound 0.003 µM, first compound 0.316 µM
[4] = second compound 0.003 µM, first compound 1 µM
[5] = second compound 0.003 µM, first compound 3.16 µM
[6] = second compound 0.003 µM, first compound 10 µM
[7] = second compound 0.00949 µM, first compound 0.0316 µM
[8] = second compound 0.00949 µM, first compound 0.1 µM
[9] = second compound 0.00949 µM, first compound 0.316 µM
[10] = second compound 0.00949 µM, first compound 1 µM
[11] = second compound 0.00949 µM, first compound 3.16 µM
[12] = second compound 0.00949 µM, first compound 10 µM
[13] = second compound 0.03 µM, first compound 0.0316 µM
[14] = second compound 0.03 µM, first compound 0.1 µM
[15] = second compound 0.03 µM, first compound 0.316 µM
[16] = second compound 0.03 µM, first compound 1 µM
[17] = second compound 0.03 µM, first compound 3.16 µM
[18] = second compound 0.03 µM, first compound 10 µM
[19] = second compound 0.0949 µM, first compound 0.0316 µM
[20] = second compound 0.0949 µM, first compound 0.1 µM
[21] = second compound 0.0949 µM, first compound 0.316 µM
[22] = second compound 0.0949 µM, first compound 1 µM
[23] = second compound 0.0949 µM, first compound 3.16 µM
[24] = second compound 0.0949 µM, first compound 10 µM
[25] = second compound 0.3 µM, first compound 0.0316 µM
[26] = second compound 0.3 µM, first compound 0.1 µM
[27] = second compound 0.3 µM, first compound 0.316 µM
[28] = second compound 0.3 µM, first compound 1 µM
[29] = second compound 0.3 µM, first compound 3.16 µM
[30] = second compound 0.3 µM, first compound 10 µM
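Further: spheroids exposed to agents for 7 days.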
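Wherever viability, T/C is given: 100% = DMSO vehicle control viability.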

Cc1cc(C)c(CNC(=O)c2cc(-c3ccc(CN4CCOCC4)cc3)cc3c2cnn3C2CCCC2)c(=O)[nH]1 + CC[C@@]1(O)C(=O)OCc2c1cc1n(c2=O)Cc2cc3c(CN(C)C)c(O)ccc3nc2-1
IC50 (second compound 0.003 µM): 3210 nM
IC50 (second compound 0.00949 µM): 1960 nM
IC50 (second compound 0.03 µM): < 31.6 nM
IC50 (second compound 0.0949 µM): < 31.6 nM
IC50 (second compound 0.3 µM): < 31.6 nM
viability, T/C [1]: 103%
viability, T/C [2]: 81.8%
viability, T/C [3]: 84%
viability, T/C [4]: 72.9%
viability, T/C [5]: 53.1%
viability, T/C [6]: 10.1%
viability, T/C [7]: 81.9%
viability, T/C [8]: 75%
viability, T/C [9]: 79.8%
viability, T/C [10]: 54.1%
viability, T/C [11]: 45.2%
viability, T/C [12]: 16.8%
viability, T/C [13]: 32.9%
viability, T/C [14]: 37.2%
viability, T/C [15]: 35.6%
viability, T/C [16]: 33.1%
viability, T/C [17]: 11.7%
viability, T/C [18]: 7.5%
viability, T/C [19]: 6%
viability, T/C [20]: 6.44%
viability, T/C [21]: 4.34%
viability, T/C [22]: 5.8%
viability, T/C [23]: 5.25%
viability, T/C [24]: 6.46%
viability, T/C [25]: 1.9%
viability, T/C [26]: 2.19%
viability, T/C [27]: 2.16%
viability, T/C [28]: 2.06%
viability, T/C [29]: 2.3%
viability, T/C [30]: 2.37%

Cc1sc2c(c1C)C(c1ccc(Cl)cc1)=NC(CC(=O)Nc1ccc(O)cc1)c1nnc(C)n1-2 (stereo not given) + CC[C@@]1(O)C(=O)OCc2c1cc1n(c2=O)Cc2cc3c(CN(C)C)c(O)ccc3nc2-1
IC50 (second compound 0.003 µM): 55 nM
IC50 (second compound 0.00949 µM): 52.3 nM
IC50 (second compound 0.03 µM): < 9.49 nM
IC50 (second compound 0.0949 µM): < 9.49 nM
IC50 (second compound 0.3 µM): < 9.49 nM
viability, T/C (second compound 0.003 µM, first compound 0.00949 µM): 90.7%
viability, T/C (second compound 0.003 µM, first compound 0.03 µM): 67.6%
viability, T/C (second compound 0.003 µM, first compound 0.0949 µM): 35%
viability, T/C (second compound 0.003 µM, first compound 0.3 µM): 7.09%
viability, T/C (second compound 0.003 µM, first compound 0.949 µM): 2.44%
viability, T/C (second compound 0.003 µM, first compound 3 µM): 1.89%
viability, T/C (second compound 0.00949 µM, first compound 0.00949 µM): 78.9%
viability, T/C (second compound 0.00949 µM, first compound 0.03 µM): 68.7%
viability, T/C (second compound 0.00949 µM, first compound 0.0949 µM): 30%
viability, T/C (second compound 0.00949 µM, first compound 0.3 µM): 9.43%
viability, T/C (second compound 0.00949 µM, first compound 0.949 µM): 2.81%
viability, T/C (second compound 0.00949 µM, first compound 3 µM): 2.08%
viability, T/C (second compound 0.03 µM, first compound 0.00949 µM): 36%
viability, T/C (second compound 0.03 µM, first compound 0.03 µM): 24.5%
viability, T/C (second compound 0.03 µM, first compound 0.0949 µM): 20.9%
viability, T/C (second compound 0.03 µM, first compound 0.3 µM): 8.2%
viability, T/C (second compound 0.03 µM, first compound 0.949 µM): 2.92%
viability, T/C (second compound 0.03 µM, first compound 3 µM): 1.49%
viability, T/C (second compound 0.0949 µM, first compound 0.00949 µM): 6.49%
viability, T/C (second compound 0.0949 µM, first compound 0.03 µM): 7.18%
viability, T/C (second compound 0.0949 µM, first compound 0.0949 µM): 5.96%
viability, T/C (second compound 0.0949 µM, first compound 0.3 µM): 2%
viability, T/C (second compound 0.0949 µM, first compound 0.949 µM): 1.05%
viability, T/C (second compound 0.0949 µM, first compound 3 µM): 1.03%
viability, T/C (second compound 0.3 µM, first compound 0.00949 µM): 2.2%
viability, T/C (second compound 0.3 µM, first compound 0.03 µM): 1.82%
viability, T/C (second compound 0.3 µM, first compound 0.0949 µM): 1.38%
viability, T/C (second compound 0.3 µM, first compound 0.3 µM): 1.33%
viability, T/C (second compound 0.3 µM, first compound 0.949 µM): 0.79%
viability, T/C (second compound 0.3 µM, first compound 3 µM): 0.59%

[2H]c1nc(C)nc([2H])c1-c1cc(NC[C@@H](C)c2cccc3c(C(=O)NC)ccnc23)ncn1 + CC[C@@]1(O)C(=O)OCc2c1cc1n(c2=O)Cc2cc3c(CN(C)C)c(O)ccc3nc2-1
IC50 (second compound 0.003 µM): 3450 nM
IC50 (second compound 0.00949 µM): 3590 nM
IC50 (second compound 0.03 µM): < 31.6 nM
IC50 (second compound 0.0949 µM): < 31.6 nM
IC50 (second compound 0.3 µM): < 31.6 nM
viability, T/C [1]: 93.9%
viability, T/C [2]: 83.5%
viability, T/C [3]: 76.7%
viability, T/C [4]: 74.5%
viability, T/C [5]: 47.7%
viability, T/C [6]: 31.4%
viability, T/C [7]: 76.2%
viability, T/C [8]: 60.4%
viability, T/C [9]: 72.9%
viability, T/C [10]: 63.8%
viability, T/C [11]: 53%
viability, T/C [12]: 25.5%
viability, T/C [13]: 39.5%
viability, T/C [14]: 32.2%
viability, T/C [15]: 36.2%
viability, T/C [16]: 28.3%
viability, T/C [17]: 20.5%
viability, T/C [18]: 9.7%
viability, T/C [19]: 6.85%
viability, T/C [20]: 5.79%
viability, T/C [21]: 4.9%
viability, T/C [22]: 6.11%
viability, T/C [23]: 2.84%
viability, T/C [24]: 3.55%
viability, T/C [25]: 1.6%
viability, T/C [26]: 1.7%
viability, T/C [27]: 1.43%
viability, T/C [28]: 1.44%
viability, T/C [29]: 1.47%
viability, T/C [30]: 1.38%
